As usually defined, the ED50 is the dose at which the effect has come halfway, by size or by number of responders. One may read the LD50 as the dose expected to kill half of the subjects tested.

Each structure is given as a SMILES string.

One data set has as its system Trichomonas vaginalis. Briefly: in vivo activity against experimental infection in mice caused by Trichomonas vaginalis (ED50, Therapeutical Index). The conditions noted are these: for ED50: po; for ED50 / ED50 mg/kg per os mice: per os, mice, Trichomonas vaginalis infection; for in vivo anti-Trichomonas activity (in words): experimental infection in mice; for Therapeutical Index (comparison in words): mouse, in vivo. How it is done:
(§1) This activity, expressed as an ED50 value, is moreover coupled with a very low toxicity, expressed as an LD50 value, which was determined substantially according to the method described by Lichtfield and Wilcoxon, Journ. Pharm. Exp. Ther., 96, 99, 1949. In representative experiments, the following results have been obtained:
(§2) which indicate that the compound of the invention is a very useful and promising anti-Trichomonas agent. This becomes even more evident if one considers its Therapeutical Index (TI). Said parameter, which is mathematically expressed by the following ratio LD50 /ED50 gives a reliable idea about the safety of a drug and, considering how it is calculated, it is clear that the higher the TI, the safer the drug is; a high value of the Therapeutical Index means in fact a low effective dose (ED50) in comparison with the lethal dose (LD50). […] As an example, the 5-isopropyl-1-methyl-2-nitroimidazole, described in U.S. Pat. No. 3,499,967 and therein mentioned as one of the most outstanding in vivo active 2-nitroimidazoles against Trichomonas vaginalis, has a Therapeutical Index of 102.
(§3) 1. In the present experiment there are compared the anti-Trichomonas in vivo activities and the Therapeutical Indexes (TI) of the compound of the invention (hereinafter referred to as compound A) and four 5-hydroxy alkyl-2-nitroimidazoles described or falling within prior art patents. In these four compounds the hydroxy group is bound to a primary or secondary carbon atom which not necessarily is linked to the imidazole nucleus.
(§4) 2. In the following set of experiments there are evaluated the variations of Therapeutical Index (positive or negative) which are observed when some 5-alkyl-2 -nitroimidazoles known from the prior art are compared with the corresponding 5-hydroxyalkyl-2-nitroimidazoles, including the new compound A. Obviously all of the compounds are tested for their in vivo activity against Trichomonas vaginalis. […] With reference to the hereinbelow reported table and the first four pair of compounds, the results clearly indicate that the variations of Therapeutical Index which are observed are slightly positive or even negative i.e., that the Therapeutical Index of the known 5-hydroxyalkyl-2-nitroimidazoles either is worse than or is substantially the same as that of the corresponding 5-alkyl compounds: this practically means that no appreciable therapeutical results have been obtained, and that, considering the last pair of substances i.e., compound K and compound A (the compound of the invention), an unrelevant or unfavorable variation of the Therapeutical Index would have to be expected as well. On the contrary, a dramatically favorable and unpredictable variation of this parameter is observed and, clearly, this effect is to be interpreted as a remarkable improvement of the therapeutical (anti-Trichomonas) properties:
(§5) 3. In the third experiment there are evaluated the effects on the Therapeutical Index of the substitution with two methyl groups of two hydrogen atoms of the methyl radical at the 5-position of compound F namely [drawing 17] in comparison with the effects on the same parameter caused by the substitution with two methyl groups of the two hydrogen atoms of the hydroxymethyl group of compound B, namely [drawing 18] The compounds are obviously tested for their anti-Trichomonas in vivo properties.

Experiment in data set [1]: as above
As to conditions: mouse, in vivo, po; ratio LD50/ED50, per os mice; read-out: Therapeutical Index (TI). How it is done: as §1, §2, §3, §4, §5

Data set [2] is described as follows: toxicity (LD50) per os in mice, substantially according to Lichtfield and Wilcoxon. The conditions noted are these: mouse, in vivo, po. How it is done: This activity, expressed as an ED50 value, is moreover coupled with a very low toxicity, expressed as an LD50 value, which was determined substantially according to the method described by Lichtfield and Wilcoxon, Journ. Pharm. Exp. Ther., 96, 99, 1949. In representative experiments, the following results have been obtained: […]

Data set [3] can be described thus: usual in vitro antibacterial tests. The text has this:
Though the compound of the present invention is formally embraced by the foregoing general formula, it is to be noted that in the cited Belgian Patent only concrete examples of 5-hydroxy lower alkyl substituents are reported, wherein the hydroxy lower alkyl groups are 2-hydroxyethyl or 2-hydroxypropyl, i.e. only primary or secondary alcohols are disclosed.

Turning to `Cn1c(CCO)cnc1[N+](=O)[O-]`, in the data set with Trichomonas vaginalis, the ED50 came to 35 mg/kg. Moreover, the selectivity ratio in data set [1] was 43. For the same compound, the LD50 in data set [2] was 1500 mg/kg.

As to `Cc1cnc([N+](=O)[O-])n1C`, the ED50 in the data set with Trichomonas vaginalis was 10.5 mg/kg. For the same compound, in data set [1], the selectivity ratio was determined as 23.4. This compound also displayed an LD50 in data set [2] of 246 mg/kg.

With `Cn1c(C(C)(C)O)cnc1[N+](=O)[O-]` [Compound A, 5-[(1-hydroxy-1-methyl)ethyl]-1-methyl-2-nitroimidazole], in the data set with Trichomonas vaginalis, the “in vivo anti-Trichomonas activity (in words)” value is “far highest in vivo activity” and the ED50 came out at 2.3 mg/kg. For the same compound, in the data set on Trichomonas vaginalis (listed as compound of the invention), the “in vivo anti-Trichomonas activity (in words)” value is reported as “outstanding in vivo activity”. The selectivity ratio in data set [1] worked out at 317. Besides, the LD50 in data set [2] worked out at 730 mg/kg. Besides, the “antibacterial properties in vitro (in words)” value in data set [3] is given as “very interesting antibacterial properties”.

As for `Cn1c(CO)cnc1[N+](=O)[O-]` [Compound B, 5-hydroxymethyl-1-methyl-2-nitroimidazole, reference compound], the “Therapeutical Index (comparison in words)” value in the data set on Trichomonas vaginalis was “much lower than that of compound A”.

Turning to `COC(C)(C)c1cnc([N+](=O)[O-])n1C` [Compound of formula V, 5-[(1-methoxy-1-methyl)ethyl]-1-methyl-2-nitroimidazole], in the data set with Trichomonas vaginalis, the “in vivo anti-Trichomonas activity (in words)” value is listed as “valuable degree of in vivo anti-Trichomonas activity”, the “Therapeutical Index (comparison in words)” value was “not so high as that of the compound of formula I” and the 50% effect level (ED50) was put at a dose of 2.18 mg/kg. Further, the selectivity ratio in data set [1] is 160. In data set [2], the “LD50 mg/kg per os mice” value is on record as 350 mg/kg.

For the compound `CC(C)c1cnc([N+](=O)[O-])n1C` [K, 5-isopropyl-1-methyl-2-nitroimidazole, reference compound], the selectivity ratio in data set [1] was found to be 102.

`Cn1c(CO)cnc1[N+](=O)[O-]` [drawing 3]: the 50% effect level in the data set on Trichomonas vaginalis (ED50) was put at a dose of 14.1 mg/kg. Also, in data set [1], the selectivity ratio came out at 24.8. For the same compound, the LD50 in data set [2] amounted to 350 mg/kg.

Consider `CC(O)Cc1cnc([N+](=O)[O-])n1C` (stereo not drawn) [drawing 5], for which the ED50 in the data set on Trichomonas vaginalis came to 17 mg/kg. In addition, in data set [1], the selectivity ratio turned out to be 39.4. In addition, in data set [2], the LD50 was 670 mg/kg.

`CC(CO)c1cnc([N+](=O)[O-])n1C` (stereo not drawn) [drawing 6] gave an ED50 in the data set on Trichomonas vaginalis of 20 mg/kg. For the same compound, the selectivity ratio in data set [1] turned out to be 38.8. The same compound displayed an LD50 in data set [2] of 776 mg/kg.

As for `CC(O)Cc1cnc([N+](=O)[O-])n1C` (stereo not drawn) [drawing 12], the “ED50 mg/kg per os mice” value with Trichomonas vaginalis is 17 mg/kg. Also, in data set [2], the “LD50 mg/kg per os mice” value amounted to 670 mg/kg.

In the data set with Trichomonas vaginalis, `CC(C)c1cnc([N+](=O)[O-])n1C` [drawing 13] had an ED50 of 2.6 mg/kg. For the same compound, the “LD50 mg/kg per os mice” value in data set [2] is recorded as 265 mg/kg.

As for `CC(CO)c1cnc([N+](=O)[O-])n1C` (stereo not drawn) [drawing 14], the “ED50 mg/kg per os mice” value with Trichomonas vaginalis amounted to 20 mg/kg.

Compound `CCc1cnc([N+](=O)[O-])n1C` [reference compound] gave an ED50 in the data set with Trichomonas vaginalis of 9.8 mg/kg. Also, the selectivity ratio in data set [1] was 38. This compound also returned a 50% lethal dose (LD50) in data set [2] of 372 mg/kg.

In the data set on Trichomonas vaginalis, `CCCc1cnc([N+](=O)[O-])n1C` [reference compound] returned an ED50 of 26 mg/kg. For the same compound, the selectivity ratio in data set [1] came out at 21.6. Moreover, the LD50 in data set [2] was found to be 560 mg/kg.

The values are drawn from patent US4041168A, “Nitroimidazole derivative with antibacterial activity” (Gruppo Lepetit S.p.A., priority 1975, dated 1977).
